Experimental data reported in US20220323468A1, “REDUCED NICOTINAMIDERIBOSIDES FOR THE TREATMENT/PREVENTION OF LIVER DISEASE” (SOCIETE DES PRODUITS NESTLE S.A., priority 2019, published 2022).
“Also recorded” adds a separate entry of the source. Where a name gives a salt, the structure may show the parent alone. Read-outs that look alike come from different tables or passages of the source.

What was measured:
[1] = target: T1, adenosine kinase (AK) (Mus musculus, UniProt P55264); assay: NRH-induced NAD+ synthesis with adenosine kinase inhibitors; assay type: cell-based; design: effect of AK inhibitor on NRH action (NAD+ synthesis): dose or concentration left out as unconfirmed; details: for effect of AK inhibitor on NRH action (NAD+ synthesis): AML12 cells, inhibitor (5-IT) 1 hour prior to NRH, NAD+ measured 1 hour later
T1 construct: endogenous in cells; host or cells: AML12 cells
Experimental: AML12 cells were treated with an adenosine kinase inhibitor (5-IT; […]) for 1 hour prior to NRH treatment at the doses indicated. Then, 1 hour later, acidic extracts were obtained to measure NAD^+ levels.

[2] = Intrahepatic and hepatic mitochondrial NAD+ after IP injection in mice; assay type: in vivo; details: NR 500 mg/kg or equimolar amounts, 1 hour later; for hepatic mitochondrial NAD+ levels: isolated liver mitochondria
Experimental: 10 week old male mice were fasted for 2 hours prior to intraperitoneal injection (IP) with saline as control/vehicle, nicotinamide riboside (NR; 500 mg/kg) or equimolar amounts of dihydronicotinamide riboside (NRH) or nicotinamide (NAM). Then, 1 hour later, mice were euthanized and a piece of liver was snap frozen while another piece was used for mitochondrial isolation following a published procedure (Frezza et al., 2007; Nature Protocols). The piece of snap frozen liver was weighted and submitted to acidic extraction to evaluate NAD+ levels through enzymatic methods. For isolated mitochondria, protein was quantified and 200 micrograms of protein were used for acidic extraction and NAD+ measurement through enzymatic methods. […] All results are mean+/− SEM of n=4 animals per group. * indicates statistical difference at p<0.05 vs. control/vehicle group.

[3] = system: primary hepatocytes from NRK1 knockout (NRK1KO) mice; assay: NAD+ levels in primary hepatocytes from control or NRK1 knockout mice; assay type: cell-based; details: after 1 hour of treatment
Text: (§1) The action of NRH was also NAMPT-independent, based on experiments using FK866, a NAMPT inhibitor. If NRH led to NAD+ synthesis via the formation of NMNH, this hypothetical path would require the phosphorylation of NRH into NMNH. Given the essential and rate-limiting role of NRK1 in NR phosphorylation, we wondered whether the ability of NRH to boost NAD+ levels was NRK1 dependent. To answer this question, we evaluated NRH action in primary hepatocytes from either control or NRK1 knockout (NRK1KO) mice. […] Further, they rule out the possibility that NRH-induced NAD+ […] is driven by NRH oxidation into NR.

[4] = Stability in isolated mouse plasma; assay type: in vitro ADME; details: for compound levels in plasma / generation of NAM in plasma: spiked in isolated mouse plasma, 2 h of incubation
Text: (§2) NR degradation to NAM has been proposed as a limitation for its pharmacological efficacy. To evaluate whether NRH was also susceptible to degradation to NAM, we spiked NRH or NR in isolated mouse plasma. […] We also tested the stability of NRH in other matrixes.

[5] = Stability in FBS supplemented media
Text: as §2

[6] = Tissue NAD+ levels after IP injection in mice; assay type: in vivo; details: IP 500 mg/kg, after 1 h
Experimental: (§3) The above results prompted us to test whether NRH could act as an effective NAD+ precursor in vivo. For this, we first intraperitoneally (IP) injected mice with either NR or NRH (500 mg/kg).

[7] = Circulating NAM, NRH and NR after IP injection in mice; assay type: in vivo; details: for NAM levels in circulation: mice, IP 500 mg/kg
Text: (§4) Levels of NRH and other NAD-related metabolites in biological samples were obtained by using a cold liquid-liquid extraction using a mixture of methanol:water:chloroform in 5:3:5 (v/v), from which the polar phase was recovered for hydrophilic interaction ultra-high performance liquid chromatography mass spectrometry (UHPLC-MS) analysis. The UHPLC consisted of a binary pump, a cooled autosampler, and a column oven (DIONEX Ultimate 3000 UHPLC+ Focused, Thermo Scientific), connected to a triple quadrupole spectrometer (TSQ Vantage, Thermo Scientific) equipped with a heated electrospray ionisation (H-ESI) source. Of each sample, 2 μL were injected into the analytical column (2.1 mm×150 mm, 5 μm pore size, 200 Å HILICON iHILIC®-Fusion(P)), guarded by a pre-column (2.1 mm×20 mm, 200 Å HILICON iHILIC®-Fusion(P) Guard Kit) operating at 35° C. The mobile phase (10 mM ammonium acetate at pH 9, A, and acetonitrile, B) was pumped at 0.25 mL/min flow rate over a linear gradient of decreasing organic solvent (0.5-16 min, 90-25% B), followed by re-equilibration for a total run time of 30 min. The MS operated in positive mode at 3500 V with multiple reaction monitoring (MRM). The software Xcalibur v4.1.31.9 (Thermo Scientific) was used for instrument control, data acquisition and processing. Retention time and mass detection was confirmed by authentic standards.
as §3

[8] = Plasma NRH, NR and NAM after oral administration in mice; assay type: in vivo
Experimental: (§5) 8 week-old C57BI/6NTac mice were orally gavaged with either saline (as vehicle), NR (500 mg/kg) or NRH (500 mg/kg). After 1 hour, liver, skeletal muscle and kidney NAD^+ levels were evaluated. All results are expressed as mean+/− SEM of n=5 mice per group. * indicates statistical difference at p<0.05 vs. vs. saline-treated mice. # indicates statistical difference at p<0.05 vs. NR treated mice.
as §4
(§6) Oral administration of NRH led to very similar results to those observed after IP administration. […] NRH was detectable in plasma 1 h after oral administration. In contrast, NR levels were undetectable at 1 h after NR administration.

[9] = system: AML12 hepatocytes; assay: Intracellular NAD+ levels in AML12 hepatocytes (dose-response and time course); assay type: cell-based
Experimental: Even at such relatively low dose, NRH achieved similar increases in intracellular NAD+ levels to those reached with NR at 50-fold higher concentrations. NRH achieved maximal effects on NAD+ synthesis around the millimolar range, managing to increase intracellular NAD+ levels by more than 10-fold.
NRH actions were also extremely fast (FIG. 3), as significant increases in NAD+ levels were observed within 5 minutes after NRH treatment.

[10] = system: C2C12 myotubes; assay: NAD+ levels in C2C12 myotubes after NRH treatment; assay type: cell-based
[11] = system: INS1-cells; assay: NAD+ levels in INS1-cells after NRH treatment; assay type: cell-based
[12] = system: 3T3 fibroblasts; assay: NAD+ levels in 3T3 fibroblasts after NRH treatment; assay type: cell-based
[13] = system: intracellular NRH, NMNH, NR and NMN; assay: Intracellular NAD+ related metabolites after treatment (UHPLC-MS); assay type: cell-based
Text: as §4, with “standards. […]” for “standards.”

[14] = system: equilibrative nucleoside transporters (ENTs); assay: NRH-induced NAD+ synthesis under ENT blockage; assay type: cell-based; details: in the presence of S-(4-nitrobenzyl)-6-thioinosine (NBTI)
Text: In order to understand the exact path by which NRH synthesizes NAD+, we initially evaluated whether NRH, could be transported into the cell by equilibrative nucleoside transporters (ENTs).

[15] = target: T2, NAMPT (Mus musculus, UniProt Q99KQ4); assay: NRH-induced NAD+ synthesis with NAMPT inhibitor FK866; assay type: cell-based; details: experiments using FK866, a NAMPT inhibitor
T2 construct: endogenous in cells
Text: as §1

[16] = Stability in water; assay type: physicochemical; details: pH=7, at room temperature, 48 h
Text: as §2

[17] = Hepatic NAD+ levels after oral administration in mice; assay type: in vivo; details: compared with NR
Experimental: as §5, §6

[18] = design: species or system mice; details: mouse, in vivo, 250 mg/kg
Experimental: 8 week-old C57Bl/6NTac mice were orally gavaged with either saline (as vehicle), and NRH (250 mg/kg). After 2 hours, liver, skeletal muscle and kidney NRH levels were evaluated. All results are expressed as mean+/− SEM of n=4 mice per group, as areas under the signal by LC-MS analysis, corrected by total protein amount of tissue.
as §4

[19] = system: NMNAT; assay: NRH-induced NAD+ synthesis with NMNAT inhibitor gallotannin; assay type: cell-based
Text: As a follow-up step, NMNAT enzymes could catalyze the transition from NMNH to NADH.

T1 sequence (P55264 whole entry): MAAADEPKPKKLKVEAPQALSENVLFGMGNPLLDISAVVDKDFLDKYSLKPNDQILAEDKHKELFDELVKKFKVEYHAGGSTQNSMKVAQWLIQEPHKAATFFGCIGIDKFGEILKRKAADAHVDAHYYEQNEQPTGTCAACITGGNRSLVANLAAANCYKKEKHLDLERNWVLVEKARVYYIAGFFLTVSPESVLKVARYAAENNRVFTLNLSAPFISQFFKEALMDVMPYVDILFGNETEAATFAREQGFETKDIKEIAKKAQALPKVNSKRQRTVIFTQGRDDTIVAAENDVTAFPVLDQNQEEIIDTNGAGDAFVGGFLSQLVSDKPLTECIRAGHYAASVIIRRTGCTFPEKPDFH
T2 sequence (Q99KQ4 whole entry): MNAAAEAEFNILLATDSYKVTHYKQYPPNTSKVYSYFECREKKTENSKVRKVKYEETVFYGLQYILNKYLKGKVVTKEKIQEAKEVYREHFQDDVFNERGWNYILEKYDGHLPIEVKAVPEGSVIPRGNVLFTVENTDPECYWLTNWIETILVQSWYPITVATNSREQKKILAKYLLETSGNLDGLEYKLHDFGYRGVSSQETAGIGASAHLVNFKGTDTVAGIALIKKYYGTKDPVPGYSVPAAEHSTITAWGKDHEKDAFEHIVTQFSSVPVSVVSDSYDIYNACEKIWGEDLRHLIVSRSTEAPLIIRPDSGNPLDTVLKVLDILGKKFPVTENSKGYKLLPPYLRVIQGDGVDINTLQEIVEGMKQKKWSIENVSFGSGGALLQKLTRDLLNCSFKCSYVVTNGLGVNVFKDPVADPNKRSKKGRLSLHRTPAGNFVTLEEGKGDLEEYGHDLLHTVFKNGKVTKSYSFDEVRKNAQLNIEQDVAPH

Nc1ncnc2c1c(I)cn2[C@@H]1O[C@H](CO)[C@@H](O)[C@H]1O [5-IT, 5-iodotubercidin]
effect of AK inhibitor on NRH action (NAD+ synthesis) [1]: fully ablated the action of NRH | formation of NR and NMN after NRH treatment ([1]; with 5-IT treatment): prevented the formation of NR and NMN

Nc1ncnc2nc(-c3ccc(N4CCOCC4)nc3)cc(-c3cccc(Br)c3)c12 [ABT-702]
effect of AK inhibitor on NRH action (NAD+ synthesis) [1]: confirmed

NC(=O)c1cccnc1 [NAM, nicotinamide]
intrahepatic NAD+ [2]: increase intrahepatic NAD+ | hepatic mitochondrial NAD+ levels [2]: only NRH increases mitochondrial NAD+ levels

NC(=O)c1ccc[n+]([C@@H]2O[C@H](CO)[C@H](O)C2O)c1 (stereo partly drawn) [NR, 1-b-D-ribofuranosyl-3-pyridinecarboxamide salt, reference compound]
NAD+ levels in NRK1KO derived primary hepatocytes [3]: failed to increase NAD+ levels | compound levels in plasma [4]: decayed | generation of NAM in plasma [4]: increase in NAM | degradation to NAM ([5]; FBS supplemented media): as occurs with NR | NAD+ levels in kidney [6]: increased NAD+ levels | NAD+ levels in liver [6]: increased NAD+ levels | NAD+ levels in muscle [6]: increased NAD+ levels | NAM levels in circulation [7]: highly increased | circulating NAM relative to that after NRH treatment ([8]; C57BI/6NTac, mouse, in vivo, po, 1 h): ~4 fold | administered compound in plasma ([8]; mouse, in vivo, po): undetectable | circulating NAM ([8]; mouse, in vivo, po): large increases | intrahepatic NAD+ [2]: increase intrahepatic NAD+ | hepatic mitochondrial NAD+ levels [2]: only NRH increases mitochondrial NAD+ levels

NC(=O)C1=CN([C@@H]2O[C@H](CO)[C@@H](O)[C@H]2O)C=CC1 [NRH]
time to significant increase in NAD+ levels after treatment ([9]; AML12 hepatocytes, FIG. 3): ≤ 5 min | ability to increase intracellular NAD+ ([9]; AML12 hepatocytes, compared with NR): superior to that of NR | concentration at which NAD+ levels are significantly increased ([9]; AML12 hepatocytes, dose-response, FIG. 2): 10 µM | fold higher NR concentration needed to reach similar increases in intracellular NAD+ ([9]; NRH at 10 μM versus NR): 50 fold | maximal increase of intracellular NAD+ levels ([9]; around the millimolar range): more than 10 fold | NAD+ levels [10]: highly elevated | NAD+ levels [11]: highly elevated | NAD+ levels [12]: highly elevated | intracellular detection of NRH and NMNH ([13]; 5 minutes after treatment): could be detected intracellularly | intracellular NR and NMN ([13]; after treatment, compared with NR): increase in intracellular NR and NMN, greater than that triggered by NR itself | capacity as extracellular NAD+ precursor under ENT blockage [14]: largely lost its capacity as an extracellular NAD+ precursor | dependence of NAD+ increasing action on NAMPT [15]: NAMPT-independent | NAD+ levels in NRK1KO derived primary hepatocytes [3]: not affected by NRK1 deficiency | generation of NMNH, NADH and NAD+ from NRH ([1]; metabolomic analyses, upon inhibition of AK): fully blunted | NR production in plasma ([4]; incubation in isolated plasma): did not lead to NR production | compound levels in plasma [4]: remained stable | generation of NAM in plasma [4]: NAM was not generated; also recorded: did not significantly alter NAM levels | degradation to NAM [5]: did not degrade to NAM | stability in water [16]: certified NRH stability | NAD+ levels in kidney [6]: increased NAD+ levels | NAD+ levels in liver [6]: increased NAD+ levels | NAD+ levels in muscle [6]: increased NAD+ levels | NAM levels in circulation [7]: only a very mild increase | NR in circulation ([7]; mouse, in vivo, ip): much higher levels than those detected after NR injection itself | NRH in circulation ([7]; mouse, in vivo, ip): detectable in circulation | effect on hepatic NAD+ levels [17]: more potent effect on hepatic NAD+ levels than NR | NRH concentration in plasma ([8]; mice, after oral gavage): 11.16 ± 1.74 µM | administered compound in plasma ([8]; mouse, in vivo, po): detectable | NRH in kidney [18]: found intact, in high levels | NRH in liver [18]: found intact, in high levels | NRH in muscle [18]: found intact, in high levels | intrahepatic NAD+ [2]: increase intrahepatic NAD+ | hepatic mitochondrial NAD+ levels [2]: only NRH increases mitochondrial NAD+ levels

O=C(OC[C@H]1O[C@@H](OC(=O)c2cc(O)c(O)c(OC(=O)c3cc(O)c(O)c(O)c3)c2)[C@H](OC(=O)c2cc(O)c(O)c(OC(=O)c3cc(O)c(O)c(O)c3)c2)[C@@H](OC(=O)c2cc(O)c(O)c(OC(=O)c3cc(O)c(O)c(O)c3)c2)[C@@H]1OC(=O)c1cc(O)c(O)c(OC(=O)c2cc(O)c(O)c(O)c2)c1)c1cc(O)c(O)c(OC(=O)c2cc(O)c(O)c(O)c2)c1 [gallotannin]
effect of NMNAT inhibitor on NAD+ synthesis after NRH treatment [19]: largely compromised NAD+ synthesis | effect of NMNAT inhibitor on NRH action ([19]; NRH at maximal doses (0.5 mM)): part of the NRH action remained | effect of NMNAT inhibitor on NRH action ([19]; NRH at submaximal doses): totally blocked
